Results reported in patent US11433136B2, “Polyacetal polymers, conjugates, particles and uses thereof” (THE GENERAL HOSPITAL CORPORATION, priority 2015, dated 2022).
One block for each compound: values may come before it.

Key:
[1] = mouse, in vivo, po, 10 mg/kg
Procedure: The purpose of this single-dose PK study was to evaluate the in vivo drug release of Can-DPC in 4T1 tumor bearing animals by collecting whole blood, tumor, and liver tissue for bioanalytical quantification of polymer-conjugated and released drug (i.e., candesartan). In this example, the Can-DPC formulation (10 mg/kg) was administrated intravenously as a single bolus and compared directly with the PK profile of candesartan cilexetil administrated by oral gavage (10 mg/kg) using 0.5% HPMC as a vehicle (Table 5).
The mammary fat pads of Balb/C female mice (6-8 weeks old; Taconic) were implanted with syngeneic 4T1 mouse tumor cells (150,000 cells/per animal) obtained from ATCC. Tumors were allowed to develop for 10 days, reaching an average size of 150-450 mm^3 (caliper measurements), before the mice were randomized into three dose groups (Table 5). Following a single administration of the test agents (10 mg/kg) or vehicle alone, whole blood, tumor, and liver tissues were collected at 2, 24, 48 and 144 hrs post dose. In addition, intermediate submandibular bleeds (˜100 μL whole blood) were collected at 5 min, 30 min, 4 hrs, and 6 hrs (n=3 animals per timepoint) following the i.v. and p.o. dosing. […]

[2] = tested on: fibroblast growth and collagen synthesis; details: cited from earlier work
[3] = tested on: leiomyoma cell; details: cultured cells; cited from earlier work
[4] = tested on: human malignant glioma cells; details: cited from earlier work
[5] = target: CXCR4 (Homo sapiens, UniProt P61073); details: cited from earlier work
Chain of CXCR4 (P61073 whole entry, species assumed): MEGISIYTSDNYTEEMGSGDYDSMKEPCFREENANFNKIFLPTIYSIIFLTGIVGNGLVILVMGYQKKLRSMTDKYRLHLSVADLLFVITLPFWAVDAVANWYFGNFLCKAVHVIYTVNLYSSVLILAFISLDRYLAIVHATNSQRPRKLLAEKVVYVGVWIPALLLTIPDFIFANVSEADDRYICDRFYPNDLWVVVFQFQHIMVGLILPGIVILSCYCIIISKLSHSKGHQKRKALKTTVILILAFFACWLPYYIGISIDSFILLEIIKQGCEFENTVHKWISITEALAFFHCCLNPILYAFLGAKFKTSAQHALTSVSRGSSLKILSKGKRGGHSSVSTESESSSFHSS

candesartan in liver [1]: non-detectable
SMILES: CCOc1nc2cccc(C(=O)OC(C)OC(=O)OC3CCCCC3)c2n1Cc1ccc(-c2ccccc2-c2nn[nH]n2)cc1 (centres unmarked) [candesartan cilexetil]

SMILES: Cc1ccc(=O)n(-c2ccccc2)c1 [PFD, 5-methyl-1-phenyl-2(1H)-pyridone]
fibroblast growth and collagen synthesis [2]: inhibitory effect on fibroblast growth and collagen synthesis
leiomyoma cell proliferation and collagen production [3]: reduce leiomyoma cell proliferation and collagen production in cultured cells
TGF-b expression [4]: reduce TGF-b expression in human malignant glioma cells

SMILES: c1cc(CN2CCCNCCNCCCNCC2)ccc1CN1CCCNCCNCCCNCC1 [AMD3100, 1,1′-[1,4-phenylene-bis(methylene)]-bis-1,4,8,11-tetraazacyclotetradecane]
fibrosis [5]: can reduce fibrosis
